Here are results for 79 molecules from paper PMC4552634, “A New Set of Chemical Starting Points with Plasmodium falciparum Transmission-Blocking Potential for Antimalarial Drug Discovery” (PLoS ONE, 2015).

One assay deals with P. falciparum stage V gametocytes. Put plainly: microbe, parasite or virus in culture. Also on record: BacTiter-Glo ATP luminescence viability of purified stage V gametocytes in 384-well plates, per cent inhibition versus DMSO. Conditions: 48 h, 5 µM; inhibitor.
By % Inhibition is commonly meant how much of the control response was suppressed. Lower therefore signals a weak effect. With `CN(C)CCN1CCN(CCCN2c3ccccc3Sc3ccc(C(F)(F)F)cc32)CC1` [TCMDC-142257], the “% Inhibition” value worked out at 92.65%.

Still in this assay, the particulars now being: Plasmodium falciparum, 48 h, read-out: % Inhibition.
In general, inhibition refers to the drop in the measured response relative to a control, in per cent. Consider `Cc1ccc2c(NN=Cc3ccc(Cl)cc3)cc(C)nc2c1` [TCMDC-142113], for which the inhibition at 5 µM was found to be 40.7%. As for `COc1ccc(C=Cc2cc(N)c3ccccc3n2)cc1Br` [TCMDC-142285], the inhibition at 5 µM turned out to be 39.4%. As to `CCOc1ccc2c(NN=Cc3cccc(OC)c3OC)cc(C)nc2c1` [TCMDC-142205], the inhibition at 5 µM was determined as 40.8%. For the molecule `COc1ccc2c(NN=Cc3ccc(Cl)cc3)ccnc2c1` [TCMDC-142105], the inhibition at 5 µM was -15.3%.

Take `Fc1ccc2c(NN=CC=Cc3ccccc3)ccnc2c1` [TCMDC-142112]: the inhibition at 5 µM came out at 93.5%. On the same count and under the same terms, then `FC(F)(F)c1ccc2nccc(NN=CC=Cc3ccccc3)c2c1` [TCMDC-142153], with -25.7%; and `Cc1ccc(Cc2cnc(NCCSCc3ccc(CN4CCOCC4)o3)[nH]c2=O)cn1` [TCMDC-142303], with -5.99%. On the same count and under the same terms, then `O=c1c(NCCCN(Cc2ccc(F)cc2)c2ccccn2)c(NCc2ccncc2)c1=O` [TCMDC-142310], with 91.6%; and `COc1ccccc1-c1nc2nc(N)nc(N)c2nc1-c1ccccc1OC` [TCMDC-142250], with 16.7%.

`N[C@@H](Cc1cc(I)c(Oc2ccc(O)c(C(=O)O)c2)c(I)c1)C(=O)O` [TCMDC-142341]: the inhibition at 5 µM turned out to be 5.53%. Same read-out and setting: the result for `COc1cccc2c(NN=Cc3ccc(Cl)cc3)ccnc12` [TCMDC-142106] reads -26.4%. Same read-out and setting: then `Nc1c2c(nc3ccc(Oc4ccc(Cl)cc4)cc13)CCCC2` [TCMDC-142282], with 92%; and `CCOc1ccc2c(NN=Cc3ccc(F)cc3)cc(C)nc2c1` [TCMDC-142201], with 105%.

Regarding `CC1=C(C(=O)OCCOCc2ccccc2)C(c2ccccc2C(F)(F)F)C(C(=O)OCCOCc2ccccc2)=C(C)N1` [TCMDC-142290], the inhibition at 5 µM is 61.1%. On the same count and under the same terms, then `CCOc1ccc2c(NN=Cc3cccc(OC)c3)cc(C)nc2c1` [TCMDC-142204], with 80.8%; and `CN=C(Nc1c(Cl)cccc1Cl)N(C)C` [TCMDC-142121], with 5.95%; and `Cc1cc(NN=Cc2ccc(Cl)cc2)c2cc(C(F)(F)F)ccc2n1` [TCMDC-142155], with -3.11%. On the same count and under the same terms, the result for `CN(C)CCCOc1ccc(-c2csc(NC(N)=NCc3ccccc3)n2)cc1` [TCMDC-142339] reads 35.3%. Consider `Cc1ccc2c(c1[N+](=O)[O-])N=NCC2Oc1ccccc1` (stereo not shown) [TCMDC-142213], for which the inhibition at 5 µM was 38.1%. For `CN(C(=O)c1ccc(Br)cc1)c1ccccc1[N+](=O)[O-]` [TCMDC-142245], the inhibition at 5 µM was -8%.

Turning to `COc1cc2c(cc1OC)C(c1ccc(Br)cc1)CN(C)CC2` (stereo not shown) [TCMDC-142272], the inhibition at 5 µM worked out at 20.3%.

As to `CCOc1ccc2c(NN=Cc3ccccc3F)cc(C)nc2c1` [TCMDC-142193], the inhibition at 5 µM stood at 98.2%.

Consider `Cc1c(N=O)cc(C(C)(C)C)c(O)c1C(=O)Nc1ccc([N+](=O)[O-])cc1Cl` [TCMDC-142233], for which the inhibition at 5 µM was found to be 32.7%. The same measure, in the same setting: then `CNc1nc(Nc2ccccc2C)nc2ccccc12` [TCMDC-142325], with 50.8%; and `COc1ccc2c(NN=Cc3cccc(C)n3)cc(-c3ccccc3)nc2c1` [TCMDC-142120], with -50.4%.

With `CCOc1ccc2c(NN=Cc3cc(OC)c(OC)c(OC)c3)cc(C)nc2c1` [TCMDC-142208], the inhibition at 5 µM worked out at 101%. As for `Cc1cc(NN=CC=Cc2ccccc2)c2cc(F)ccc2n1` [TCMDC-142177], the inhibition at 5 µM is -42.3%. Take `COc1ccc2c(NN=Cc3ccc(N(C)C)cc3)ccnc2c1` [TCMDC-142146]: the inhibition at 5 µM was determined as 97.5%. Regarding `Cc1cc(NN=Cc2ccccc2F)c2cc(F)ccc2n1` [TCMDC-142171], the inhibition at 5 µM was -53.4%.

Regarding `CC(C)(C)CC(C)(C)c1ccc(O)c(C(=O)Nc2cccc([N+](=O)[O-])c2)c1` [TCMDC-142210], the inhibition at 5 µM was determined as 8.52%. In the case of `COc1ccc2nccc(NN=Cc3cccc([N+](=O)[O-])c3)c2c1` [TCMDC-142137], the inhibition at 5 µM was 53.9%. On the same count and under the same terms, the result for `COc1ccc(C2CNCc3c2cc(OC)c(OC)c3Cl)cc1` (stereo not shown) [TCMDC-142271] reads 22.9%; that for `CCOc1ccc2c(NN=Cc3ccccn3)cc(C)nc2c1` [TCMDC-142187], 20.9%; that for `Cc1cc(N/N=C/c2cccc([N+](=O)[O-])c2)c2ccc(F)cc2n1` [TCMDC-142169], 109%.

With `COc1cccc2c(NN=Cc3cccc(Cl)c3)ccnc12` [TCMDC-142129], the inhibition at 5 µM amounted to 91.8%. Same read-out and setting: the result for `CCCCCCc1cc(Oc2c(I)cc(C[C@H](N)C(=O)O)cc2I)ccc1O` [TCMDC-142342] reads 5.11%. With `COc1ccc2nc(C)cc(NN=Cc3cc(OC)c(OC)cc3OC)c2c1` [TCMDC-142199], the inhibition at 5 µM was -26%. On to `OC(c1cc(C(F)(F)F)nc2c(F)cccc12)C1CCCCN1` (stereo not shown) [TCMDC-142228], for which the inhibition at 5 µM was determined as 37.8%. The same measure, in the same setting: the result for `COc1ccc2c(NN=Cc3ccc(F)cc3)ccnc2c1` [TCMDC-142135] reads 5.77%. Regarding `CCN(CC)CCCC(C)Nc1c(-c2ccc(C)cc2)cnc2ccccc12` (stereo not shown) [TCMDC-142264], the inhibition at 5 µM is 25.6%. Regarding `CCOc1ccc2c(NN=Cc3cc(OC)c(OC)cc3OC)cc(C)nc2c1` [TCMDC-142207], the inhibition at 5 µM was 101%.

On to `CC(C)(C)CC(C)(C)c1ccc(O)c(C(=O)Nc2ccc([N+](=O)[O-])cc2)c1` [TCMDC-142211], for which the inhibition at 5 µM is -13%. The same measure, in the same setting: then `CCOc1cc(NCCSCc2nc[nH]c2C)nc2ccccc12` [TCMDC-142294], with 26.1%; and `COc1cccc2c(Nc3ccccc3C)nc(Nc3ccccc3C)nc12` [TCMDC-142321], with 28.2%; and `CCCC(=O)c1cnc2cc(O)ccc2c1Nc1ccccc1C` [TCMDC-142323], with -12.6%.

As for `CCOc1ccc2c(NN=Cc3ccc(OC)c(OC)c3)cc(C)nc2c1` [TCMDC-142206], the inhibition at 5 µM stood at 95.7%. Same read-out and setting: the result for `O=[N+]([O-])c1ccccc1C=NNc1ccnc2ccccc12` [TCMDC-142102] reads -47.5%; that for `COc1ccc2nccc(NN=Cc3ccccc3F)c2c1` [TCMDC-142130], 6.1%.

With `COc1ccc2c(NN=Cc3ccccc3Cl)ccnc2c1` [TCMDC-142127], the inhibition at 5 µM is -22.2%. Same read-out and setting: then `Cc1cc(N/N=C/c2ccccc2[N+](=O)[O-])c2ccc(F)cc2n1` [TCMDC-142168], with -45.1%; and `COc1ccc(CSC2CCCCC23NC(=S)NC3=S)cc1` (stereo not shown) [TCMDC-142273], with 5.66%. For the molecule `CC(C)c1cc(Oc2c(I)cc(CCCc3ncc[nH]3)cc2I)ccc1O` [TCMDC-142307], the inhibition at 5 µM was -127%. On the same count and under the same terms, the result for `COc1ccc2c(NN=Cc3cccc(F)c3)ccnc2c1` [TCMDC-142134] reads 99%; that for `Cc1cc(NN=Cc2cccc(Cl)c2)c2cc(F)ccc2n1` [TCMDC-142164], -59.6%; that for `CCCC(=O)c1cnc2c(OCCCc3c[nH]cn3)cccc2c1Nc1c(C)cccc1C` [TCMDC-142338], 28.2%.

As to `Cc1cc(NN=Cc2ccc(Cl)cc2)c2cc(F)ccc2n1` [TCMDC-142163], the inhibition at 5 µM amounted to 56.5%.

`CON(CCCN(C)C)C(=N)N` [TCMDC-142297]: the inhibition at 5 µM is 12.5%. In the case of `Cc1cc(NN=Cc2ccc(F)cc2)c2ccc(C(F)(F)F)cc2n1` [TCMDC-142159], the inhibition at 5 µM is -183%. As for `Cc1cc(NN=Cc2ccccc2Cl)c2cccc(C)c2n1` [TCMDC-142114], the inhibition at 5 µM worked out at 48.6%. Still for that read-out and setting: then `Cc1ccc(C2(O)CC3CCC(C2)N3C)cc1` (stereo not shown) [TCMDC-142260], with 10.6%; and `c1ccc(COc2ccnc(NCCCOc3cccc(CN4CCCCC4)c3)c2)cc1` [TCMDC-142314], with 40%. Consider `Nc1cc(-c2ccc3ccccc3c2)nc2ccccc12` [TCMDC-142281], for which the inhibition at 5 µM is 1.22%.

Consider `COc1ccc2nccc(NN=Cc3cccc(Cl)c3)c2c1` [TCMDC-142125], for which the inhibition at 5 µM was determined as 11.8%. On the same count and under the same terms, the result for `FC(F)(F)c1ccc2nccc(NN=Cc3ccccc3Cl)c2c1` [TCMDC-142147] reads -24.8%. Same read-out and setting: then `CCN(CC)CCCC(C)Nc1c(-c2ccc(OC)cc2)cnc2ccccc12` (stereo not shown) [TCMDC-142265], with 36.6%; and `COc1ccc2c(NN=Cc3ccccc3F)ccnc2c1` [TCMDC-142133], with 84.6%. In the case of `COc1ccc2c(NN=Cc3c(OC)ccc4ccccc34)cc(C)nc2c1` [TCMDC-142236], the inhibition at 5 µM stood at 103%. Same read-out and setting: then `Cc1ccccc1Nc1nc(NCc2ccccc2)nc2ccccc12` [TCMDC-142319], with 98.9%; and `O=c1c(NCCCN(Cc2ccc(F)cc2)c2ccccn2)c(NCc2cccnc2)c1=O` [TCMDC-142311], with 48%. For `Cc1cc(NN=Cc2ccc(F)cc2)c2cc(F)ccc2n1` [TCMDC-142172], the inhibition at 5 µM is -47.2%. Still for that read-out and setting: the result for `Cc1cc(NN=Cc2ccc(F)cc2)c2cc(C(F)(F)F)ccc2n1` [TCMDC-142158] reads -75.7%; that for `COc1cc(OC)c(OC)cc1C=NNc1cc(C)nc2ccccc12` [TCMDC-142198], 100%; that for `CCCCN(CCCC)C(=O)CC(O)c1cc2c(Cl)cc(Cl)cc2c2cc(C(F)(F)F)ccc12` (stereo not shown) [TCMDC-142317], 14.8%. `COc1ccc2nccc(NN=Cc3ccc(Cl)cc3)c2c1` [TCMDC-142124]: the inhibition at 5 µM was 58.2%. For the molecule `CCCCCCN(CCCCCC)CC(O)c1c(OC)ccc2ccccc12` (stereo not shown) [TCMDC-142248], the inhibition at 5 µM is -34.9%.

The assay is the same for the next values; noted with them: Plasmodium falciparum, 48 h; read-out: % Inhibition.
For the molecule `CCCCCCC(C)(C)c1cc(O)c2c(c1)OC(C)(C)c1ccncc1-2` [TCMDC-142253], the inhibition at 5 µM amounted to 30.7%. As for `CNCCc1c(O)ccc2ccccc12` [TCMDC-142244], the inhibition at 5 µM is -11.4%. `CC1=CC(=O)[C@@H](O)[C@]2(C)[C@H]3[C@@]4(O)OC[C@@]35[C@@H](C[C@@H]12)OC(=O)C[C@H]5[C@@H](C)[C@H]4O` [TCMDC-142261]: the inhibition at 5 µM is 50.1%.
